In US20080206364A1, “Topical nitric oxide as a treatment of autoimmune diseases” (Nitric Biotherapeutics, Inc., priority 2006, published 2008):
“Also recorded” adds a separate entry of the source.

Columns and labels:
[1] = system: leg ulcer induced by an autoimmune disorder; experiment: Autoimmune wound patient: leg ulcer in antiphospholipid antibody syndrome, topical nitric oxide gas; format: in vivo, human
Description: A patient was diagnosed with antiphospholipid antibody syndrome. Antiphospholipid antibody syndrome is an autoimmune disorder that mainly affects people under the age of 40. The disease causes the blood in the body to clot and is associated with a type of antibody that attacks blood platelets. Strokes, deep vein thrombosis (DVT), heart attacks, and pulmonary emboli are some of the manifestations of the disease. As a result of this syndrome, the patient had two DVT's and one pulmonary embolism.
Following repetitive injury to the deep venous system, the patient developed three areas of ulceration and secondary skin breakdown on the left shin area of the leg. The wound was colonized with a variety of organisms and at times had been clinically infected. The patient had been treated with numerous types of oral and IV antibiotics over several years. Many different types of dressings had been used to control the bacteria, including silver dressings, all without success.
The three small ulcers continued to grow in size and then joined together to create one large ulcer (FIG. 15A). Skin grafts on two occasions deteriorated and sloughed due to repetitive infections and high bacterial burden, even with the use of hyperbaric oxygen treatment.
With the inability to control the bacterial burden, amputation was planned. As a rescue trial, topical nitric oxide gas was applied for eight hours per night.
The nitric oxide therapy was then changed to be used for 12 hours per night, using 200 ppm gNO.

[2] = system: full thickness infected wound; experiment: Histology of full thickness infected wound punch biopsies, gNO-treated vs control animals; format: in vivo; conditions: for toxic effects (cellular debris) in wound tissue: in vivo exposure, 200 ppm gNO, open wound animal model
Experimental: FIG. 5 illustrates histology analysis of full thickness infected wound exposed to 200 ppm gNO for 24 hours.
FIG. 5 presents histological analysis of tissue blocks prepared on wound punch biopsies from animals in NO-treated and control groups. Samples from the control group show more advanced neutrophil infiltration and so a higher degree of inflammatory reaction. […] Overall, a healthier healing process is observed in the wounds treated with gNO.

[3] = system: collagenase mRNA; experiment: mRNA expression for collagenase following exposure to gNO; format: cell-based; conditions: 200 ppm gNO, 24 and 48 hours, with increasing exposure time
Description: Witte M B, et al, (2002) Nitric oxide enhances […] wound healing in diabetes, Br J Surg., 89:1594-601. Thus, Applicants believe that NO may upregulate expression of both collagenase (MMP-1) and gelatinase (MMP-2), which may be important in keeping the wound clean from necrotic tissue while not prolonging the inflammatory phase.

[4] = system: human fibroblast cells; experiment: Fibroblast viability study in gNO incubation chamber (morphology, cell count, proliferation); format: cell-based
Experimental: Fibroblast cells obtained from adult patients undergoing elective reconstructive surgery were cultured in Dulbeco's Modified Eagle's Medium (DMEM), supplemented with 10% fetal bovine serum (FBS) and antibiotic-antimycotic preparation and divided into ten 25 cm^2 vented culture flasks (COSTAR). Four of these flasks (treated group) were exposed to 20 or 200 ppm humidified gNO inside a specialized NO incubation chamber at 37° C. for 24 and 48 hours. The NO exposure chamber was validated prior to the study to eliminate extraneous variables and ensure optimal conditions for fibroblast cell growth. Another four flasks (control group) were placed inside conventional culture incubator and exposed only to ambient humidified air at 37° C. Two flasks were separately harvested and counted as the number of cells at zero time. Following the treatment, fibroblast cells were harvested and evaluated for morphology, cell count, capacity to proliferate and medium pH.
Cells under gNO appeared healthy and attached to the culture plates.

[5] = system: fibroblasts grown in a 3D matrix; experiment: Migration and proliferation of fibroblasts grown in a 3D matrix; format: cell-based; conditions: 200 ppm NO, 8 hours per day for 3 days, vs air or conventional incubator
[6] = system: human fibroblasts; experiment: Cell attachment capacity of human fibroblasts; format: cell-based; conditions: 160 ppm gNO, within 1 hour of culturing; control group the same
Experimental: FIG. 9 illustrates cell attachment capacity of human fibroblasts following exposure to 160 ppm of gNO.
Capability of cells to reattach to the culture plates within a specified time limit is commonly used as an indication of viability of cells in culture. Both the control and treated groups show a 70% attachment capacity within 1 hour of culturing.

[7] = system: collagen mRNA; experiment: mRNA expression for collagen following exposure to NO; format: cell-based
Description: Rather than applying exogenous collagenase for enzymatic debridement of necrotic tissue, exposing a wound with necrotic tissue to exogenous NO gas to upregulate endogenous collagenase may be more beneficial. When endogenous collagenase is released by the cell, it automatically releases TIMP's (tissue inhibitor of metalloproteinase). This ensures that the matrix degradation is coordinated and allows the establishment of sharp geographical boundaries of collagenolytic activity and the protection of areas of connective tissue from the activity of the enzyme. In contrast, use of exogenous collagenase material to debride a wound confers no protection to specific areas of the wound as it is active on every cell that comes in contact with it whether or not the effect is desired.
Preferably, after the exposure of the wound to high concentration of nitric oxide gas for a first treatment period (e.g., 5-8 hours per day), the necrotic tissue may be mechanically removed easily and the concentration of nitric oxide gas can be decreased for a second treatment period. The low concentration of nitric oxide gas (e.g., at 5-20 ppm) delivered for the second treatment period may upregulate the expression of collagen mRNA leading to synthesis of new collagen to aid in the closure of the wound. […] The second treatment period may be for a period 7-16 hours per day. […]

[8] = system: human endothelial cells; experiment: Tube formation in human endothelial cells grown in matrigel; format: cell-based; conditions: 200 ppm NO, 8 hours or 24 hours
Experimental: Left panels at 8 hours of exposure. Right panels at 24 hours of exposure.

[9] = system: psoriatic lesions; experiment: Psoriasis study, one volunteer, NO delivered to right foot in plastic boot; format: in vivo, human; conditions: 300 ppm
Experimental: Experiments were conducted using one volunteer who suffers from psoriasis. The subject had psoriasis on their arms, legs and feet, all of which is itchy and painful. At the time of the study, the volunteer was using a medicated cream called DOVOBET on the arms and legs. The subject stopped using the medicated cream on the legs and feet prior to the NO treatments described herein.
Treatments were administered to the subject's right foot, as it appeared to have been affected the most by psoriasis. […] Around the ankle were small red blotches that spread all of the way up the leg. The small blotches were slightly raised and appeared to be inflamed.
The subject's foot was placed into a large plastic boot, which was lightly secured with VELCRO straps halfway up the calf. A tube coming out of the top of the plastic boot was unaltered, and the second tube was sealed off using a plastic clamp. A NO line capable of delivering NO at 300 ppm, 250 cc per minute, was screwed into the bottom tubing closest to the ankle using a plastic screw. A pin was used to pick several holes in the bottom of the plastic boot to allow the NO to flow through the boot. NO was then administered to the boot, and therefore, the psoriatic lesions, at 300 ppm for 180 minutes per day over six consecutive days.

[10] = 200 ppm gNO, 12 hours per night, another eight weeks
[11] = gNO less than 200 ppm continuously for 48 hours
[12] = after second treatment (day two)
[13] = after third treatment (day three)

Compound: [N]=O [NO, nitric oxide]
- clinical outcome (planned amputation) [1, 10]: amputation was avoided
- wound covered by beefy red granulation tissue [1, 10]: ~75%
- wound appearance ([1]; topical, eight hours per night, within six weeks): less yellow slough in the wound bed, the wound edges appeared less raised, and more granulation buds were present
- neutrophil concentration (inflammatory reaction) in wounds ([2]; 200 ppm gNO for 24 hours, vs control group): lower level of neutrophil concentration
- wound closure / healing process (histology) ([2]; 200 ppm gNO for 24 hours, vs control wounds): layer of granular tissue closing on the wound
- toxic effects (cellular debris) in wound tissue ([2]; listed as gNO): No toxic effects
- toxic effects (cellular debris) in wound tissue ([2]; listed as nitric oxide gas): no toxicity
- expression of collagenase mRNA [3]: increased
- fibroblast cell proliferation ([4]; 200 ppm NO, vs control): increasing proliferation; also recorded: increase in fibroblast cell proliferation
- harmful effects on the fibroblast (morphology, cell count, capacity to proliferate, medium pH) ([4]; around 200 ppm gNO, 24 and 48 hours, 37° C.): did not have harmful effects
- morphological appearance and attachment capacity of treated vs control dermal fibroblasts [4, 11]: quite comparable
- toxic effect due to exposure [4, 11]: No toxic effect
- migration of fibroblasts [5]: does not appear to affect
- proliferation of fibroblasts in 3D matrix [5]: does not appear to interfere with the proliferation
- attachment capacity [6]: 70%
- collagen mRNA expression ([7]; fibroblasts exposed to 5 ppm of NO): increased collagen mRNA expression
- collagen expression ([7]; high concentration (200 ppm) of exogenous nitric oxide, FIG. 6 left panel): possible inhibition of collagen expression
- tube formation vs air [8]: no significant difference
- appearance of the psoriasis ([9]; 180 min, after first treatment (day one)): no change
- white scales on the ankle ([9]; 180 min, after the first day): disappeared
- discolored (dark) patch of skin on inner calf ([9]; 180 min per day, after day two): almost gone
- physical results (psoriatic condition) ([9]; after fourth, fifth and sixth treatments (days 4, 5 and 6)): remain the same
- inflammation around the ankle [9, 12]: diminished slightly
- small red blotches around the ankle and up the leg [9, 12]: the same as prior to the treatment
- inflammation around the ankle [9, 13]: decreased considerably
- psoriatic lesion around the ankle (area) [9, 13]: smaller in area
- small red blotches around the ankle and up the leg [9, 13]: appeared the same
